Experimental data: patent US3974281A, “5-Methyl-1-phenyl-2-(1H)-pyridone compositions and methods of use” (priority 1974, dated 1976)
“Also recorded” adds a separate entry of the source.

Experiments:
[1] = test system: rats with the hind limb inflammed; experiment: Analgesic activity, rats with inflamed hind limb (absence of squeal on flexion of inflamed ankle joint); format: in vivo, rat; conditions: oral
Protocol: the end-point for analgesic testing in rats with the hind limb inflammed is based on the absence of a squeal in response to flexion of the inflammed ankle joint (Method described by S. Margolin, Proceedings of an International Symposium on Non-Steroidal Anti-Inflammatory Drugs, Excerpta Medica International Congress, Series No. 82, 1964).
With AMR-93, the median effective dose was 325 ± 45 mg./kg.

[2] = test system: skin conditions; experiment: Effect on skin conditions (dermatitis, itching, insect sting, poison ivy) in humans; format: in vivo, human
[3] = Tolerability on administration over extended periods; format: in vivo
Text: It may be administered orally, topically, parenterally, intradermally, by inhalation spray in formulations containing conventional non-toxic pharmaceutically acceptable carriers, adjuvants and vehicles. The term parenteral as used herein includes subcutaneous injections, intravenous, intromuscular, intracisternal or intrathecal injection or infusion techniques.

[4] = test system: rat lung tissues; experiment: Protection of mucous membranes against noxious agents, gross examination of rat lung tissues; format: in vivo
[5] = test system: dog lung tissues; experiment: Protection of mucous membranes against noxious agents, microscopic examination of dog lung tissues; format: in vivo
[6] = test system: blood; experiment: Blood studies after administration for efficacy, and acute and chronic toxicity; format: in vivo; conditions: therapeutic or sublethal amounts; rats, mice, rabbits and dogs
[7] = test system: rabbit eye (conjunctival sac); parameters: species or system albino rabbits of the New Zealand strain; conditions: in vivo
Protocol: six male albino rabbits of the New Zealand strain were incorporated in this study. A dosage of 0.1 ml. of AMR-69-62 (2% Aqueous Solution) was introduced into the conjunctival sac of the left eye of each rabbit; the right eye served as an untreated control. The six treated rabbit eyes were scored against the corresponding untreated control eyes according to the method of Draize (Draize, J.H., in Appraisal of the Safety of Chemicals in Foods, Drugs and Cosmetics, Assoc. of Food and Drug Officials of U.S., Austin, Tex., 1959) at 0.5 minutes, 30 minutes and 3.0 hours after administration of AMR-69.

[8] = test system: serum uric acid; experiment: Reduction in serum uric acid levels, rats; format: in vivo, albino male and female rats
Protocol: normal adult albino male and female rats were given repeated graded doses of AMR-69 and the effect upon serum uric acid levels was determined. There were 10 males and 10 females in each group. The control group received the placebo and the drug was administered orally by admixture to the food. The serum uric acid determination was one of a series performed utilizing the Autotechnicon technique (Lofland et al., 1965 Technicon Symposium) using the Standard SMA-12 procedure (based upon procedure of Bittner et al., AM. J. Clin. Path. 40:423, 1963).
The lowering in serum uric acid levels shown by AMR-69 in tests on rats and on dogs has been noted.

[9] = test system: fasted albino mice (Flanders); experiment: Acute toxicity in mice; format: in vivo; conditions: oral and intraperitoneal
Protocol: (§1) in fasted albino mice (Flanders) the LD50 for AMR-69 and aminopyrine was determined by standard procedures with the following results: […]

[10] = Acute toxicity in mice; format: in vivo; conditions: mouse, in vivo, ip; fasted albino mice, intraperitoneal; read-out: Intraperitoneally LD50
Protocol: as §1

[11] = test system: mucous membranes of the nasopharynx and lungs; experiment: Protection of mucous membranes of the nasopharynx and lungs, comparison with related pyridones; format: in vivo; conditions: comparison with related pyridones
[12] = test system: serum uric acid; experiment: Reduction in serum uric acid levels, dogs; format: in vivo, Beagle type dogs
Protocol: adult male and female Beagle type dogs from a closed colony weighing approximately 10 to 15 kilograms were utilized in the study. There were seven to nine dogs per group. AMR-69 was given orally in capsules to two groups and the third group received placebo capsules. […] The method for determining serum uric acid was performed using the Autotechnicon and the SMR-12 series of analyses. The specific method was based upon the procedure of Lofland et al. The mean serum uric acid values obtained with repeated doses of AMR-69 were as follows: […]

[13] = test system: rabbit leg muscle; experiment: Local toxicity of intramuscular injection into rabbit leg muscle; format: in vivo, New Zealand white rabbits
Protocol: six healthy adult New Zealand white rabbits from a stock colony were injected into the large muscle mass of the leg with a 2.0 milliliter volume of 2.0% aqueous solution of AMR-69. The response was compared to the intramuscular injection of 2.0 ml. of an isotonic solution of sodium chloride. The animals were carefully observed for any evidence of discomfort for a period of three hours. […] Three hours after the injection, the animals were sacrificed and a careful dissection was made around the injection site of the: (1) skin, (2) subcutaneous fascia, and (3) muscle tissue for a gross examination under a low powder binocular mircroscope for any tissue reaction. […] Similarly, no tissue reaction was found following the intramuscular injection of the isotonic saline. One change noted in two rabbits reflected a hemorrhage from a vein which was cut as the hypodermic needle passed into the tissue. After the gross examination, the muscle masses were dissected out, removed and preserved in buffered formalin for histological examination.

[14] = Absorption into the blood stream; conditions: in vivo
[15] = test system: edema (swelling), experimental inflammation in the hind limb of rats; experiment: Anti-inflammatory activity, reduction of edema of experimentally inflamed hind limb; format: in vivo, albino rats; conditions: oral
Protocol: anti-inflammatory activity was assayed by the method described by Margolin (ibid.) utilizing albino rats. The anti-inflammatory bio-assay basis is the ability to reduce the edema (swelling) when an experimental inflammation is induced in the hind limb of the rats.

## Cc1ccc(=O)n(-c2ccccc2)c1 [AMR-69, 5-methyl-1-phenyl-2-(1H)-pyridone]
[1]; Rattus norvegicus, read-out: oral ED50 (median analgesic dose)
  ED50: 145 ± 26 mg/kg
[1]
  analgesic effectiveness by the oral route as compared to aminopyrine: as effective as aminopyrine
  onset of analgesic effect as compared to aminopyrine: more rapid onset of analgesic effect
[2]; oral capsule (procedure of preceding section)
  relief from the symptom, skin conditions: Relief from the symptom was rapid in each instance
[2]; powder applied directly to the affected skin areas
  relief from itching, contact dermatitis (poison ivy): substantially immediate relief from the characteristic itching
[2]; powder applied topically, poison ivy
  time to cessation of weeping of the affected areas: thirty
[3]; effective dosage levels
  irritation of body tissues at effective dosage levels: relatively non-irritating to the various body tissues
[3]; extended periods
  side reactions on administration over extended periods: no untoward side reactions
[4]
  protection against noxious focal respiratory tract pathology (petechiae, edema, hemorrhage, focal infection): affording protection against noxious focal respiratory tract pathology
[5]
  protection against noxious focal respiratory tract pathology (petechiae, edema, hemorrhage, focal infection): affording protection against noxious focal respiratory tract pathology
[6]
  blood dyscrasias: no indication of blood dyscrasias
[7]
  Draize evaluation of eye irritation: would not be considered as an irritant to the eye
  group mean Draize score at 0.5 minutes: 2.0
  group mean Draize score at 30 minutes: 0.0
  group mean Draize score at 3.0 hours: 0.0
[8]; microscopic examination of focal tissues of sacrificed animals
  crystal deposition of uric acid or its salts (joints, liver, muscles, kidneys): no evidence of crystal deposition
[8]; rats, 30 and 100 mg./kg.
  reduction in serum uric acid, significance: statistically significant
[8]; rats, repeated oral 30 mg./kg. in food, placebo 1.53 ± 0.20 mg.%, T = 1.92 (P = 0.06)
  serum uric acid, 30 mg./kg.: 1.05 ± 0.15 mg.%
[8]; rats, repeated oral 100 mg./kg. in food, placebo 1.53 ± 0.20 mg.%, T = 3.25 (P< 0.01)
  serum uric acid, 100 mg./kg.: .78 ± 0.11 mg %
[9]
  lethal dosage level / toxicity as compared to aminopyrine: markedly lower toxicity; also recorded: significant higher lethal dosage level as compared to aminopyrine
[10]
  LD50: 420 ± 9 mg/kg
[11]
  protection of mucous membranes of the nasopharynx and lungs: effective
[12]; oral capsules (P 0.05)
  reduction in serum uric acid values versus control: significantly different from the control
[12]; repeated oral capsules 25 mg/kg, placebo 0.78 ± 0.046 mg.%, T = 2.84 (P<0.02)
  mean serum uric acid, 25 mg/kg: 0.59 ± 0.051 mg.%
[12]; repeated oral capsules 75 mg/kg, placebo 0.78 ± 0.046 mg.%, T = 2.40 (P<0.05)
  mean serum uric acid, 75 mg/kg: 0.60 ± 0.049 mg.%
[13]; 2.0 ml of 2.0% aqueous solution i.m.
  microscopic examination of injection sites versus isotonic saline: no difference between those of the isotonic saline and the parenteral AMR-69
[13]; 2.0 ml of 2.0% aqueous solution i.m., stained tissue sections
  histological examination of excised muscle: absence of any edema, erythema, chemosis, or necrosis
[13]; 2.0 ml of 2.0% aqueous solution i.m., three hours
  tissue reaction at injection site, gross examination (skin, subcutaneous fascia, muscle): No evidence of tissue reaction was observed
[13]; 2.0 ml of 2.0% aqueous solution, three hours
  discomfort after intramuscular injection: No discomfort was evident
[14]
  absorption in the blood stream: very rapidly absorbed in the blood stream
[15]; Rattus norvegicus, read-out: oral median effective dose (ED50), anti-inflammatory
  ED50: 200 ± 46 mg/kg
[15]; vs aminopyrine
  onset of the anti-inflammatory therapeutic effect: more rapid onset of the therapeutic effect
